Assay results taken from the supplement of paper PMC4862054.

Key:
Conditions in all cases: incubation time: 72 h
[1] = test system: CAL-148; experiment: normalised response (% of control), CellTiter-Glo; higher = more viable cells (100 = DMSO, 0 = benzethonium chloride kill control)
Procedure, shortened: (§1)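 Each value is the plate-normalised signal at one concentration of the series. Breast cancer cell lines (20 µl suspension) were incubated 72 h in 384-well plates with compound at 5 concentrations in 10-fold steps over a compound-specific 10,000-fold range. CellTox Green and then CellTiter-Glo were read, and each plate was scaled to 0.1 % DMSO (100) and a positive kill control (0).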

[2] = test system: HCC1599; experiment: as above
Procedure, shortened: as §1

[3] = test system: BT-474; experiment: as above
Procedure, shortened: as §1

[4] = test system: DU-4475; experiment: as above
Procedure, shortened: as §1

[5] = test system: MDA-MB-453; experiment: as above
Procedure, shortened: as §1

[6] = test system: MDA-MB-231; experiment: as above
Procedure, shortened: as §1

[7] = test system: CAL-85-1; experiment: as above
Procedure, shortened: as §1

[8] = test system: MCF-10A; experiment: as above
Procedure, shortened: as §1

[9] = test system: CAL-51; experiment: as above
Procedure, shortened: as §1

[10] = test system: CAL-120; experiment: as above
Procedure, shortened: as §1

[11] = test system: BT-549; experiment: as above
Procedure, shortened: as §1

[12] = test system: MDA-MB-468; experiment: as above
Procedure, shortened: as §1

[13] = test system: HCC1937; experiment: as above
Procedure, shortened: as §1

[14] = test system: MDA-MB-436; experiment: as above
Procedure, shortened: as §1

[15] = test system: SK-BR-3; experiment: as above
Procedure, shortened: as §1

[16] = test system: Hs578T; experiment: as above
Procedure, shortened: as §1

[17] = test system: HCC1143; experiment: as above
Procedure, shortened: as §1

[18] = test system: MFM-223; experiment: as above
Procedure, shortened: as §1

[19] = test system: HDQ-P1; experiment: as above
Procedure, shortened: as §1

[20] = test system: CAL-148; experiment: normalised response (% of control), CellTox Green; higher = less cell death (100 = DMSO, 0 = benzethonium chloride kill control)
Procedure, shortened: as §1

[21] = test system: HCC1599; experiment: as above
Procedure, shortened: as §1

[22] = test system: BT-474; experiment: as above
Procedure, shortened: as §1

[23] = test system: DU-4475; experiment: as above
Procedure, shortened: as §1

[24] = test system: MDA-MB-453; experiment: as above
Procedure, shortened: as §1

[25] = test system: MDA-MB-231; experiment: as above
Procedure, shortened: as §1

[26] = test system: CAL-85-1; experiment: as above
Procedure, shortened: as §1

[27] = test system: MCF-10A; experiment: as above
Procedure, shortened: as §1

[28] = test system: CAL-51; experiment: as above
Procedure, shortened: as §1

[29] = test system: CAL-120; experiment: as above
Procedure, shortened: as §1

[30] = test system: BT-549; experiment: as above
Procedure, shortened: as §1

[31] = test system: MDA-MB-468; experiment: as above
Procedure, shortened: as §1

[32] = test system: HCC1937; experiment: as above
Procedure, shortened: as §1

[33] = test system: MDA-MB-436; experiment: as above
Procedure, shortened: as §1

[34] = test system: Hs578T; experiment: as above
Procedure, shortened: as §1

[35] = test system: HCC1143; experiment: as above
Procedure, shortened: as §1

[36] = test system: MFM-223; experiment: as above
Procedure, shortened: as §1

[37] = test system: HDQ-P1; experiment: as above
Procedure, shortened: as §1

SMILES | normalised response [1] [%] | normalised response [2] [%] | normalised response [3] [%] | normalised response [4] [%] | normalised response [5] [%] | normalised response [6] [%] | normalised response [7] [%] | normalised response [8] [%] | normalised response [9] [%] | normalised response [10] [%] | normalised response [11] [%] | normalised response [12] [%] | normalised response [13] [%] | normalised response [14] [%] | normalised response [15] [%] | normalised response [16] [%] | normalised response [17] [%] | normalised response [18] [%] | normalised response [19] [%] | normalised response [20] [%] | normalised response [21] [%] | normalised response [22] [%] | normalised response [23] [%] | normalised response [24] [%] | normalised response [25] [%] | normalised response [26] [%] | normalised response [27] [%] | normalised response [28] [%] | normalised response [29] [%] | normalised response [30] [%] | normalised response [31] [%] | normalised response [32] [%] | normalised response [33] [%] | normalised response [34] [%] | normalised response [35] [%] | normalised response [36] [%] | normalised response [37] [%]
Cc1c(Cn2c(C)nc3c(C(=O)O)cc(N4CCOCC4)cc32)cccc1C(F)(F)F (1000 nM) | 101 | 117 | 96.2 | 95.1 | 93.1 | 100 | 98.1 | 115 | 74.1 | 99.8 | 75.5 | 80.9 | 94.4 | 99.5 | 106 | 103 | 103 | 104 | 105 | 107 | 92.3 | 102 | 111 | 112 | 107 | 104 | 110 | 100 | 109 | 111 | 125 | 106 | 107 | 105 | 119 | 105 | 115
CC/C(=C(\c1ccc(O)cc1)c1ccc(OCCN(C)C)cc1)c1ccccc1 [4-hydroxytamoxifen] (1000 nM) | 102 | 105 | 101 | 98.5 | 102 | 97 | 97.2 | 98.8 | 102 | 92.5 | 93.6 | 91.6 | 93.9 | 101 | 99.2 | 107 | 98.9 | 95.6 | 98.8 | 57.6 | 95.8 | 97.7 | 105 | 111 | 108 | 120 | 103 | 108 | 108 | 114 | 128 | 86.6 | 93.6 | 97.2 | 88.3 | 95.9 | 97.3
CCCCC/C=C/C=C1/C(=O)C=C[C@@H]1C/C=C\CCCC(=O)O [15D-PGJ2] (80 nM) | 102 | 88.8 | 101 | 102 | 96.8 | 101 | 96.2 | 111 | 123 | 103 | 99.1 | 99.2 | 99.1 | 98.5 | 103 | 107 | 104 | 99.9 | 99.9 | 103 | 109 | 98.9 | 110 | 113 | 86.6 | 125 | 104 | 113 | 108 | 105 | 155 | 123 | 116 |  | 82.5 | 101 | 111
O=C(Nc1c[nH]nc1-c1nc2ccc(CN3CCOCC3)cc2[nH]1)NC1CC1 [AT9283] (100 nM) | 46.6 | 102 | 73.8 | 88.9 | 141 | 78.8 | 105 | 71.8 | 69 | 85 | 82.1 | 29.7 | 93.8 | 99 | 86.4 | 88.8 | 84.8 | 89.2 | 96.9 | 20.3 | 110 | 103 | 97.6 | 100 | 14.5 | 84.6 | 70.3 | 71.7 | 84.9 | 121 | 70.7 | 85 | 86.7 | 94.9 | 101 | 103 | 99.6
